pIC50: −log10 of the molar value.
Target: CK2A1 (CK2α/β) (Homo sapiens, UniProt P68400)
Assay: CK2 kinase assay, CK2A1 (CK2α/β)
Assay type: biochemical
Conditions: Table A; read-out: CK2A1 (CK2α/β) (IC50)

Chain of CK2A1 (CK2α/β) (P68400 whole entry, species assumed): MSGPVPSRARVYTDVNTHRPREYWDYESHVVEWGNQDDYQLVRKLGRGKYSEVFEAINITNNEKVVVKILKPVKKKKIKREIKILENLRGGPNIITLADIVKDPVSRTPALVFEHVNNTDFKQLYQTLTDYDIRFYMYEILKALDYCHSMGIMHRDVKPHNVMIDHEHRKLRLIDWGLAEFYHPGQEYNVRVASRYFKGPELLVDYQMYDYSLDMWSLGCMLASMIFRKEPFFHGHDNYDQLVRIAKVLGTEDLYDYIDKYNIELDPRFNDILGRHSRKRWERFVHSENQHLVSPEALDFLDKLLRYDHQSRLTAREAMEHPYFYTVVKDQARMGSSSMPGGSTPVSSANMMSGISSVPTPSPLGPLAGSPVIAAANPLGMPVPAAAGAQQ
Chain of CK2A1 (CK2α/β) (P67870 whole entry partner, species assumed): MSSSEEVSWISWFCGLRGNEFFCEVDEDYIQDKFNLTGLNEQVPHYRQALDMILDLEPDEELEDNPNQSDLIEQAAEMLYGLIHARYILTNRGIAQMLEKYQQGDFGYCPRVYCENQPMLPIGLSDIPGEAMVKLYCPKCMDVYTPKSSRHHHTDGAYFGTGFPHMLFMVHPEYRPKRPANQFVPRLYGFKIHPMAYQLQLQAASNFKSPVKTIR

Compound	pIC50
N#Cc1cc(Nc2nc(NC3CC3)c3ncc(C#N)n3n2)c(Cl)c(N2CCC(NC3COC3)CC2)c1 [Example 110, 2-((2-chloro-5-cyano-3-(4-(3-oxetanylamino)-1-piperidinyl)phenyl)amino)-4-(cyclopropylamino)imidazo [2,1-f][1,2,4]triazine-7-carbonitrile]	9.24
CC(CO)N1CCN(c2cc(C#N)cc(Nc3nc(NC4CC4)c4ncc(C#N)n4n3)c2Cl)CC1 (racemic) [Example 54, (+/−) 2-((2-chloro-5-cyano-3-(4-(2-hydroxy-1-methylethyl)-1-piperazinyl)phenyl)amino)-4-(cyclopropylamino) imidazo[2,1-f][1,2,4] triazine-7-carbonitrile]	8.79
CNC(C)CC(C)c1cc(Cl)c(Nc2nc(NC3CC3)c3ncc(C#N)n3n2)cc1C#N (stereo not shown) [Example 733, 2-({2-chloro-5-cyano-4-[4-(methylamino)pentan-2-yl]phenyl}amino)-4-(cyclopropylamino)imidazo [2,1-f][1,2,4]triazine-7-carbonitrile]	8.65
N#Cc1cnc2c(NC3CC3)nc(Nc3cc(C(F)F)cc(N4CCN(C5COC5)CC4)c3Cl)nn12 [Example 242, 2-((2-Chloro-5-(difluoromethyl)-3-(4-(oxetan-3-yl)piperazin-1-yl)phenyl)amino)-4-(cyclopropylamino)imidazo[2,1-f][1,2,4]triazine-7-carbonitrile]	8.89
CN(CCN)c1cc(Cl)c(Nc2nc(NC3CC3)c3ncc(C#N)n3n2)cc1C#N [Example 412, 2-((4-((2-aminoethyl)(methyl)amino)-2-chloro-5-cyanophenyl)amino)-4-(cyclopropylamino)imidazo[2,1-f][1,2,4]triazine-7-carbonitrile]	9.37
N#Cc1cc(Nc2nc(NC3CC3)c3ncc(C#N)n3n2)c(Cl)c(N2CCN(C(=O)CCCn3ccnc3)CC2)c1 [Example 96, 2-((2-chloro-5-cyano-3-(4-(4-(1H-imidazol-1-yl)butanoyl)-1-piperazinyl)phenyl)amino)-4-(cyclopropylamino) imidazo[2,1-f][1,2,4] triazine-7-carbonilrile]	9.20
COCCN1CCC(c2cc(C#N)cc(Nc3nc(NC4CC4)c4ncc(C#N)n4n3)c2Cl)CC1 [Example 211, 2-(2-chloro-5-cyano-3-(1-(2-methoxyethyl)piperidin-4-yl)phenylamino)-4-(cyclopropylamino)imidazo[1,2-f][1,2,4]triazine-7-carbonitrile]	9.05
N#Cc1cnc2c(NC3CC3)nc(Nc3cc(C(F)F)cc(C4CCN(C5COC5)CC4)c3Cl)nn12 [Example 407, 2-((2-chloro-5-(difluoromethyl)-3-(1-(3-oxetanyl)-4-piperidinyl)phenyl)amino)-4-(cyclopropylamino)imidazo[2,1-f][1,2,4]triazine-7-carbonitrile]	8.75
CC1CN(c2cc(C#N)cc(Nc3nc(NC4CC4)c4ncc(C#N)n4n3)c2Cl)CCN1C (racemic) [Example 35, (+/−) 2-((2-chloro-5-cyano-3-(3,4-dimethyl-1-piperazinyl)phenyl)amino)-4-(cyclopropylamino)imidazo [2,1-f][1,2,4]triazine-7-carbonitrile]	9.42
COC(=O)N1CC(N2CCN(c3cc(OC(F)F)cc(Nc4nc(NC5CC5)c5ncc(C#N)n5n4)c3Cl)CC2)C1 [Example 562, methyl 3-(4-(2-chloro-3-((7-cyano-4-(cyclopropylamino)imidazo[2,1-f][1,2,4]triazin-2-yl)amino)-5-(difluoromethoxy)phenyl)piperazin-1-yl)azetidine-1-carboxylate]	8.48
N#Cc1cc(Nc2nc(NC3CC3)c3ncc(C#N)n3n2)c(Cl)c(N2CCN(C3CN(C(=O)C4CCOC4)C3)CC2)c1 (stereo not shown) [Example 523, 2-[(2-chloro-5-cyano-3-{4-[1-(oxolane-3-carbonyl)azetidin-3-yl]piperazin-1-yl}phenyl)amino]-4-(cyclopropylamino)imidazo[2,1-f][1,2,4]triazine-7-carbonitrile]	8.32
N#Cc1cnc2c(NC3CC3)nc(Nc3cc(C(N)=O)cc(N4CC(NC5COC5)C4)c3Cl)nn12 [Example 166, 4-chloro-3-((7-cyano-4-(cyclopropylamino)imidazo [2,1-f][1,2,4]triazin-2-yl)amino)-5-(3-(3-oxetanylamino)-1-azetidinyl)benzamide]	9.36
N#Cc1cc(Nc2nc(NC3CC3)c3ncc(C#N)n3n2)c(Cl)c([C@H]2CCC[C@@H](N3CC(O)C3)C2)c1 (single isomer, unassigned) [Example 730]	8.91
CCNc1nc(Nc2cc(C#N)cc(N3CCN(C4(C)COC4)CC3)c2Cl)nn2c(C#N)cnc12 [Example 542, 2-((2-chloro-5-cyano-3-(4-(3-methyloxetan-3-yl)piperazin-1-yl)phenyl)amino)-4-(ethylamino)imidazo[2,1-f][1,2,4]triazine-7-carbonitrile]	8.87
CC(C)(N)CC(=O)N1CC(N2CCN(c3cc(C#N)cc(Nc4nc(NC5CC5)c5ncc(C#N)n5n4)c3Cl)CC2)C1 [Example 501, 2-[(3-{4-[1-(3-amino-3-methylbutanoyl)azetidin-3-yl]piperazin-1-yl}-2-chloro-5-cyanophenyl)amino]-4-(cyclopropylamino)imidazo[2,1-f][1,2,4]triazine-7-carbonitrile]	8.58
COC(=O)N[C@H]1CCN(c2cc(C#N)cc(Nc3nc(NC4CC4)c4ncc(C#N)n4n3)c2Cl)C[C@@H]1OC(=O)Cc1ccc(OP(=O)(O)O)cc1 [Example 199, (3S,4S)-1-(2-chloro-5-cyano-3-((7-cyano-4-(cyclopropylamino)imidazo[2,1-f][1,2,4]triazin-2-yl)amino)phenyl)-4-((methoxycarbonyl)amino)-3-piperidinyl (4-(phosphonooxy)phenyl)acetate]	9.35
N#Cc1cc(Nc2nc(NC3CC3)c3ncc(C#N)n3n2)c(Cl)c(C2CCN(C(=O)C3(O)CC3)CC2)c1 [Example 232, 2-((2-chloro-5-cyano-3-(1-((1-hydroxycyclopropyl)carbonyl)-4-piperidinyl)phenyl)amino)-4-(cyclopropylamino)imidazo[2,1-f][1,2,4]triazine-7-carbonitrile]	9.21
CN1CCN(C2CN(c3cc(OC(F)F)cc(Nc4nc(NC5CC5)c5ncc(C#N)n5n4)c3Cl)C2)CC1 [Example 405, 2-((2-chloro-5-(difluoromethoxy)-3-(3-(4-methylpiperazin-1-yl)azetidin-1-yl)phenyl)amino)-4-(cyclopropylamino)imidazo[2,1-f][1,2,4]triazine-7-carbonitrile]	9.32
CCNc1nc(Nc2cc(C#N)cc(N3CCN(C4COC4)CC3)c2F)nn2c(C#N)cnc12 [Example 556, 2-((5-cyano-2-fluoro-3-(4-(oxetan-3-yl)piperazin-1-yl)phenyl)amino)-4-(ethylamino)imidazo[2,1-f][1,2,4]triazine-7-carbonitrile]	8.43
CN1CCN(C2CN(c3cc(C#N)cc(Nc4nc(NC5CC5)c5ncc(C#N)n5n4)c3Cl)C2)CC1=O [Example 156, 2-((2-chloro-5-cyano-3-(3-(4-methyl-3-oxo-1-piperazinyl)-1-azetidinyl)phenyl)amino)-4-(cyclopropylamino)imidazo [2,1-f][1,2,4]triazine-7-carbonitrile]	9.44
CS(=O)(=O)N1CCN(c2cc(C#N)cc(Nc3nc(NC4CC4)c4ncc(C#N)n4n3)c2Cl)CC1 [Example 4, 2-((2-chloro-5-cyano-3-(4-(methylsulfonyl)-1-piperazinyl)phenyl)amino)-4-(cyclopropylamino)imidazo [2,1-f][1,2,4]triazine-7-carbonitrile]	9.19
CN1CCC(N2CC(F)(c3cc(C#N)cc(Nc4nc(NC5CC5)c5ncc(C#N)n5n4)c3Cl)C2)CC1 [Example 658, 2-((2-chloro-5-cyano-3-(3-fluoro-1-(1-methylpiperidin-4-yl)azetidin-3-yl)phenyl)amino)-4-(cyclopropylamino)imidazo[2,1-f][1,2,4]triazine-7-carbonitrile]	8.64
N#Cc1cc(CN2CC(O)C2)c(Cl)c(Nc2nc(NC3CC3)c3ncc(C#N)n3n2)c1 [Example 673, 2-((2-chloro-5-cyano-3-((3-hydroxyazetidin-1-yl)methyl)phenyl)amino)-4-(cyclopropylamino)imidazo[2,1-f][1,2,4]triazine-7-carbonitrile]	9.31
N#Cc1cc(Nc2nc(NC3CC3)c3ncc(C#N)n3n2)c(Cl)c(N2CCC(NC3CCOCC3)CC2)c1 [Example 125, 2-((2-chloro-5-cyano-3-(4-(tetrahydro-2H-pyran-4-ylamino)-1-piperidinyl)phenyl)amino)-4-(cyclopropylamino)imidazo [2,1-f][1,2,4]triazine-7-carbonitrile]	9.12
CC1(N)CCN(c2cc(C(F)F)cc(Nc3nc(NC4CC4)c4ncc(C#N)n4n3)c2Cl)CC1 [Example 245, 2-((3-(4-amino-4-methyl-1-piperidinyl)-2-chloro-5-(difluoromethyl)phenyl)amino)-4-(cyclopropylamino)imidazo[2,1-f][1,2,4]triazine-7-carbonitrile]	9.29
CCN1CC2(CCN(c3cc(C#N)cc(Nc4nc(NC5CC5)c5ncc(C#N)n5n4)c3Cl)CC2)C1 [Example 801, 2-((2-chloro-5-cyano-3-(2-ethyl-2,7-diazaspiro[3.5]nonan-7-yl)phenyl)amino)-4-(cyclopropylamino)imidazo[2,1-f][1,2,4]triazine-7-carbonitrile]	8.67
COC(=O)N[C@H]1CN(C2CN(c3cc(C#N)cc(Nc4nc(NC5CC5)c5ncc(C#N)n5n4)c3Cl)C2)C[C@@H]1OC (racemic) [Example 297, (+/−) methyl ((3S,4S)-1-(1-(2-chloro-5-cyano-3-((7-cyano-4-(cyclopropylamino)imidazo[2,1-f][1,2,4]triazin-2-yl)amino)phenyl)-3-azetidinyl)-4-methoxy-3-pyrrolidinyl)carbamate]	8.52
N#Cc1cc(Nc2nc(NC3CC3)c3ncc(C#N)n3n2)c(Cl)c(C(O)C(F)(F)F)c1 (racemic) [Example 680, (+/−)-2-((2-chloro-5-cyano-3-(2,2,2-trifluoro-1-hydroxyethyl)phenyl)amino)-4-(cyclopropylamino)imidazo[2,1-f][1,2,4]triazine-7-carbonitrile]	8.43

— patent US9273057B2 (Bristol-Myers Squibb Company, priority 2012, dated 2016)
